Data taken from patent publication US20140378679A1, “CRYSTALLINE CARBOHYDRATE DERIVATIVE” (GLYCOM A/S, priority 2008, published 2014).

How the values were obtained:
[1] = Anomeric stability in D2O solution followed by 1H-NMR; format: physicochemical; details: 10 mg in 700 μL D2O, room temperature; 1H-NMR recorded immediately and a day later
Protocol: 10 mg pure α-lactosamine hydrochloride was dissolved in 700 μL D2O, then 1H-NMR spectrum was recorded immediately. A second 1H-NMR spectra was recorded a day later, by which time the clean substance had already anomerized. On first spectrum (FIG. 3, above) at 5.26 ppm the H-1 and at 4.29 ppm the H-1′ can be seen. On the second spectrum (FIG. 3, below) next to the alpha anomer already the beta appears. At 4.78 ppm H-1-beta and at 2.85 ppm H-2-beta can be seen.

Compound	melting point	anomerization of the pure alpha anomer in solution (appearance of beta anomer) [1]
Cl.N[C@@H]1[C@@H](O)[C@H](O[C@@H]2O[C@H](CO)[C@H](O)[C@H](O)[C@H]2O)[C@@H](CO)O[C@@H]1O (hydrate or solvate) [α-lactosamine hydrochloride]	174 °C	–
Cl.N[C@@H]1[C@@H](O)[C@H](O[C@@H]2O[C@H](CO)[C@H](O)[C@H](O)[C@H]2O)[C@@H](CO)O[C@@H]1O [α-lactosamine hydrochloride]	–	anomerizes at room temperature within one day
